US20100210708A1, “COMPOUND PROFILING METHOD” (CYTOPATHFINDER, INC., priority 2007, published 2010)

Key:
MCF7 = details: breast cancer cells MCF7; cited from earlier work
T-47D cell = details: human derived breast cancer, compared with SK-BR-3; cited from earlier work
SK-BR-3 = details: breast cancer cell SK-BR-3; stated as known; cited from earlier work
SHSY5Y cell = assay: Exposure of SHSY5Y neuroblastoma cells to stimulants: marker enzyme expression and extension of neuron projection; format: cell-based; details: a neuroblastoma from human
Source text: The functions of (1) and (2) are different, but share the same properties in terms of extension of neuron projection. Therefore, cellular components necessary for these two intracellular alteration were specified experimentally by means of RNA interference method. As such, it was obtained that the component collection (3) necessary for the alteration from SHSY5Y to (1) are {JAK1, JAK3, ROR, and RET}. On the other hand, the component collection (4) necessary for the alteration from SHSY5Y cells to (2), are {NTRK1, EPHB2, INSR, RDGFRA, ROR and RET}. When comparing and calculation of intersection is done for (3) and (4), the intersection (5) was obtained to read {ROR and RET}. Next, the collection (6) {JAK1 and JAK3} by subtraction of (3)-(5) and the collection (5) were analyzed in terms of an intermolecular interaction, and the existence of a pathway of a molecular signals from (6) to (5) (FIG. 3A) was determined. Furthermore, the collection (7) which was obtained by the subtraction of (4)-(5), and the collection (5) were analyzed in terms of an intermolecular interaction, and the existence of a pathway of molecular signals from (7) to (5) (FIG. 3B) was further determined. The common components and pathway relating to the projection extension by retinoic acid (RA) and Nerve Growth Factor (NGF) are shown in FIG. 4.

| Compound | DXR resistance (MCF7) | DXR sensitivity (T-47D cell) | growth inhibition (SK-BR-3) | expression of tyrosine hydroxylase (SHSY5Y cell) | extension of neuron projection (SHSY5Y cell) | neuron cell type formed (SHSY5Y cell) |
| --- | --- | --- | --- | --- | --- | --- |
| COc1cccc2c1C(=O)c1c(O)c3c(c(O)c1C2=O)C[C@@](O)(C(=O)CO)C[C@@H]3O[C@H]1C[C@H](N)[C@H](O)[C@H](C)O1 [doxorubicin] | having DXR resistance | same DXR sensitivity as the SK-BR-3 | subjected to growth inhibition | – | – | – |
| Nerve Growth Factor: Nerve Growth Factor (NGF), stimulant triggering neurite outgrowth in SHSY5Y cells | – | – | – | tyrosine hydroxylase was expressed | caused extension of neuron projection | forms dopaminergic neuron cells |
